Measured values taken from patent US11969476B2, “Antibody molecule-drug conjugates and uses thereof” (priority 2020, dated 2024).
Converted amounts (≈) assume the structure as drawn. Ends that are not written are not given here.

Tests used:
P. aeruginosa BAA-2108 = tested on: P. aeruginosa BAA-2108; design: key: R = Resistant; S = Suspectible; I = Intermediate; NT = Note Tested; settings: strain BAA-2108, isolated from human sputum; cited from earlier work
P. aeruginosa BAA-2112 = tested on: P. aeruginosa BAA-2112; design: key: R = Resistant; S = Suspectible; I = Intermediate; NT = Note Tested; settings: strain BAA-2112, isolated from human sputum; cited from earlier work
P. aeruginosa BAA-2114 = tested on: P. aeruginosa BAA-2114; design: key: R = Resistant; S = Suspectible; I = Intermediate; NT = Note Tested; settings: strain BAA-2114, isolated from human sputum; cited from earlier work
P. aeruginosa BAA-2111 = tested on: P. aeruginosa BAA-2111; design: key: R = Resistant; S = Suspectible; I = Intermediate; NT = Note Tested; settings: strain BAA-2111, isolated from human sputum; cited from earlier work
P. aeruginosa BAA-2113 = tested on: P. aeruginosa BAA-2113; design: key: R = Resistant; S = Suspectible; I = Intermediate; NT = Note Tested; settings: strain BAA-2113, isolated from human sputum; cited from earlier work
P. aeruginosa BAA-2109 = tested on: P. aeruginosa BAA-2109; design: key: R = Resistant; S = Suspectible; I = Intermediate; NT = Note Tested; settings: strain BAA-2109, isolated from human sputum; cited from earlier work
P. aeruginosa BAA-2110 = tested on: P. aeruginosa BAA-2110; design: key: R = Resistant; S = Suspectible; I = Intermediate; NT = Note Tested; settings: strain BAA-2110, isolated from human sputum; cited from earlier work
in vitro = settings: human, Cytotox CC50
[1] = Cytotoxicity to mammalian cells; settings: human, 293T cells
Eco 25922 = experiment: MIC determination (CLSI, 2-fold serial dilutions); assay type: cell-based, E. coli
Description: (§1) Assessment of Antimicrobial Activity. […] All plates were placed at 37° C. overnight. After 18 hours the plates were read using a mirrored plate reader and reflected incandescent light. […] Wells at and above the MIC should appear void of growth when read by eye.

Pae 39324 = experiment: MIC determination (CLSI, 2-fold serial dilutions); assay type: cell-based, Pseudomonas aeruginosa
Description: as §1

Pae 27853 = experiment: MIC determination (CLSI, 2-fold serial dilutions); assay type: cell-based, Pseudomonas aeruginosa
Description: as §1

Sau 29213 = experiment: MIC determination (CLSI, 2-fold serial dilutions); assay type: cell-based, S. Aureus
Description: as §1

293T = experiment: Cytotoxicity to mammalian cells
[2] = LC-MS; 10% human serum (FIG. 8)
Description: Assessment of Serum Stability. […] Twenty μl of each test article was placed in a 2.0 ml round bottom microfuge tube. […] Assay tubes were placed at 37° C. in a rotating rack between time-points. […] Supernatant from each tube was collected and frozen at −20° C. for analysis. Samples were harvested and processed at various time-points up to 6 hours.

Compound | antibiotic resistance phenotype (P. aeruginosa BAA-2108) | antibiotic resistance phenotype (P. aeruginosa BAA-2112) | antibiotic resistance phenotype (P. aeruginosa BAA-2114) | antibiotic resistance phenotype (P. aeruginosa BAA-2111) | antibiotic resistance phenotype (P. aeruginosa BAA-2113) | antibiotic resistance phenotype (P. aeruginosa BAA-2109) | antibiotic resistance phenotype (P. aeruginosa BAA-2110) | also measured
NCC[C@H](O)C(=O)N[C@@H]1C[C@H](N)[C@@H](O[C@H]2O[C@H](CN)[C@@H](O)[C@H](O)[C@H]2O)[C@H](O)[C@H]1O[C@H]1O[C@H](CO)[C@@H](O)[C@H](N)[C@H]1O [Amikacin] | S | S | S | S | S | S | S | 
CC1(C)S[C@@H]2[C@H](NC(=O)[C@H](N)c3ccccc3)C(=O)N2[C@H]1C(=O)O [Ampicillin] | R | R | R | R | R | R | R | 
CC(=O)OCC1=C(C(=O)O)N2C(=O)[C@@H](NC(=O)Cc3cccs3)[C@H]2SC1 [Cefalotin] | R | R | R | R | R | R |  | 
Cc1nnc(SCC2=C(C(=O)O)N3C(=O)[C@@H](NC(=O)Cn4cnnn4)[C@H]3SC2)s1 [Cefazolin] |  | R | R | R | R | R | R | 
CO/N=C(\C(=O)N[C@@H]1C(=O)N2C(C(=O)O)=C(COC(C)=O)CS[C@H]12)c1csc(N)n1 [Cefotaxime] | R | R | R | R | R | R | R | 
CO[C@@]1(NC(=O)Cc2cccs2)C(=O)N2C(C(=O)O)=C(COC(N)=O)CS[C@@H]21 [Cefoxitin] | R | R | R | R | R | R | R | 
CO/N=C(\C(=O)N[C@@H]1C(=O)N2C(C(=O)O)=C(CSc3nc(=O)c(=O)[nH]n3C)CS[C@H]12)c1csc(N)n1 [Ceftriaxone] |  | R | R | R | R | R |  | 
CO/N=C(\C(=O)N[C@@H]1C(=O)N2C(C(=O)OC(C)OC(C)=O)=C(COC(N)=O)CS[C@H]12)c1ccco1 (some centres unmarked) [Cefuroxime Axetil] | R | R | R | R | R | R |  | 
CO/N=C(\C(=O)N[C@@H]1C(=O)N2C(C(=O)O)=C(COC(N)=O)CS[C@H]12)c1ccco1 [Cefuroxime] | R | R | R | R | R | R |  | 
O=C(O)c1cn(C2CC2)c2cc(N3CCNCC3)c(F)cc2c1=O [Ciprofloxacin] | S | S | R | S | S | S | S | 
CC[C@H](C)[C@H](NC(=O)[C@H](CCCCN)NC(=O)[C@H](CCC(=O)O)NC(=O)[C@H](CCCCN)NC(=O)[C@H](CO)NC(=O)[C@H](CCCCN)NC(=O)[C@H](CCCNC(=N)N)NC(=O)[C@H](Cc1ccccc1)NC(=O)[C@H](Cc1ccccc1)NC(=O)[C@H](CC(=O)O)NC(=O)CNC(=O)[C@H](CC(C)C)NC(=O)[C@H](CC(C)C)NC(=O)CNC(=O)CNC(=O)CN)C(=O)NCC(=O)N[C@@H](CCCCN)C(=O)N[C@@H](CCC(=O)O)C(=O)N[C@@H](Cc1ccccc1)C(=O)N[C@@H](CCCCN)C(=O)N[C@@H](CCCNC(=N)N)C(=O)N[C@H](C(=O)N[C@H](C(=O)N[C@@H](CCC(N)=O)C(=O)N[C@@H](CCCNC(=N)N)C(=O)N[C@H](C(=O)N[C@@H](CCCCN)C(=O)N[C@@H](CC(=O)O)C(=O)N[C@@H](Cc1ccccc1)C(=O)N[C@@H](CC(C)C)C(=O)N[C@@H](CCCNC(=N)N)C(=O)N[C@@H](CC(N)=O)C(=O)N[C@@H](CC(C)C)C(=O)N[C@H](C(=O)N1CCC[C@H]1C(=O)N[C@@H](CCCNC(=N)N)C(=O)N[C@H](C(=O)N[C@@H](CCC(=O)O)C(=O)N[C@@H](CO)C(=O)O)[C@@H](C)O)C(C)C)[C@@H](C)CC)C(C)C)[C@@H](C)CC [Peptide P265] |  |  |  |  |  |  |  | CC50 (in vitro): 90 µg/mL (≈ 19.3 µM)
CN(C)c1cc(NC(=O)CNC(C)(C)C)c(O)c2c1C[C@H]1C[C@H]3[C@H](N(C)C)C(O)=C(C(N)=O)C(=O)[C@@]3(O)C(O)=C1C2=O [Tigecycline] | R | R | R | R | R | R | R | 
NC[C@H]1O[C@H](O[C@H]2[C@H](O)[C@@H](O[C@H]3O[C@H](CO)[C@@H](O)[C@H](N)[C@H]3O)[C@H](N)C[C@@H]2N)[C@H](N)C[C@@H]1O [Tobramycin] |  | S | S | S | S | S | S | 
Amoxicillin/Clavulanic Acid | R | R | R | R | R | R |  | 
GGGGIGKFLKKAKKFGKAFVKILKK [Peptide P261] |  |  |  |  |  |  |  | CC50 [1]: 250 µg/mL
GGGGLRKRLRKFRNKIKEKLKKIGQKIQGLLPKLA [Peptide P271] |  |  |  |  |  |  |  | CC50 ([1]; Cytotox CC50, concentration at which 50% cytotoxicity of mammalian cells is observed): 250 µg/mL
GGGGRFKRFRKKFKKLFKKLSPVIPLLHLG [Peptide P267] |  |  |  |  |  |  |  | CC50 (in vitro): 70 µg/mL
GGGHTASDAAAAAALTAANAAAAAAASMA [Peptide P292] |  |  |  |  |  |  |  | MIC Eco 25922 (Eco 25922): >128 μg,/ml; MIC Pae 39324 (Pae 39324): >128 μg,/ml; MIC Pae 27853 (Pae 27853): >128 μg,/ml; CC50 [1]: 250 µg/mL; MIC Sau 29213 (Sau 29213): >128 μg,/ml
GGGKFFRKLKKSVKKRAKEFFKKPRVIGVSIPF [Peptide P297] |  |  |  |  |  |  |  | cytotoxicity to 293T relative to the MIC (293T): ~200 fold; CC50 [1]: 780 µg/mL; half-life in the presence of serum [2]: ~20 min
GGGKRFKKFFKKLKNSVKKRAKKFFKKPRVIGVSIPF [Peptide P296] |  |  |  |  |  |  |  | CC50 [1]: 400 µg/mL
GGGRGLRRLGRKIAHGVKKYGPTVLRIIKKYG [Peptide P294] |  |  |  |  |  |  |  | CC50 (in vitro): 120 µg/mL
Gentamicin | I | S | S | S | S | S | I | 
Piperacillin/Tazobactam |  | S | S | S | S | S |  | 
Trimethoprim/Sulfamethoxazole | R | R | R | R | R | R | R | 
